This is an account of results in patent US12369584B2, “Fungicide mixtures” (LANXESS Deutschland GmbH, priority 2019, dated 2025).

Read-outs that look alike come from different tables or passages of the source.

Assay in all cases: MIC on nutrient agar and synergistic index (Kull)
Common to all, as to format: cell-based

The subject of one experiment is Alternaria alternata. From the text:
(§1) The term synergism is used when the action of a combination of antimicrobial substances is being evaluated.
(§2) The synergism found for the mixtures according to the invention can be determined via the following mathematical formula (cf. F. C. Kull, P. C. Elisman, H. D. Sylwestrowicz and P. K. Mayer, Appl. Microbiol. 9, 538 (1961):
(§3) Qa=amount of component A in the active substance mixture which achieves the desired effect, i. e. no microbial growth,
(§4) QA=amount of component A which, when used alone, suppresses the growth of the microorganisms,
(§5) Qb=amount of component B in the active substance mixture which suppresses the growth of the microorganisms,
(§6) QB=amount of component B which, when used alone, suppresses the growth of the microorganisms
(§7) If the sum of the ratios for a mixture Qa/QA+Qb/QB=1, additivity is indicated; if it is <1, synergism has occurred; a value of >1 is indicative of antagonism.
(§8) To determine the antimicrobial efficacy and synergy of active ingredients mixtures, the Minimum Inhibitory Concentration (MIC) of the active substances and their respective combinations were determined. The Minimum Inhibitory Concentration of a given antimicrobial compound or mixture is the lowest concentration expressed in […] that under defined in vitro conditions inhibits the growth of a given micro-organism (for example bacteria, mould fungi, yeasts). The growth of the microorganisms is observed on petri dishes containing a defined nutrient agar.
(§9) The antimicrobial efficacy and synergy of combinations based on TBZ, PYM and FDL were determined.

In another experiment the test system is Aureobasidium pullulans.
From the text: as §1, §2, §3, §4, §5, §6, §7, §8, §9

A further experiment relates to Chaetomium globosum.
From the text: as §1, §2, §3, §4, §5, §6, §7, §8, §9

A further experiment deals with Paecilomyces variotii.
From the text: as §1, §2, §3, §4, §5, §6, §7, §8, §9

The next experiment relates to Stachybotris chartarum.
From the text: as §1, §2, §3, §4, §5, §6, §7, §8, §9

Setting [1] is: Stachybotris chartarum, nutrient agar, read-out: MIC.

For `N#Cc1c[nH]cc1-c1cccc2c1OC(F)(F)O2` [FDL, fludioxonil], the MIC (commonly the least concentration at which growth counts as inhibited) stood at 5 µg/mL in the experiment with Alternaria alternata; 1500 µg/mL in the experiment with Aureobasidium pullulans; 1500 µg/mL in the experiment on Chaetomium globosum; 175 µg/mL in the experiment with Paecilomyces variotii; 5 µg/mL with Stachybotris chartarum.

As to `c1ccc2[nH]c(-c3cscn3)nc2c1` [TBZ, thiabendazole], the MIC in the experiment on Alternaria alternata (nutrient agar, read-out: MIC) amounted to 250 µg/mL; in the experiment on Aureobasidium pullulans (nutrient agar, read-out: MIC), 5 µg/mL; in the experiment on Chaetomium globosum (nutrient agar, read-out: MIC), 5 µg/mL; in the experiment on Paecilomyces variotii (nutrient agar, read-out: MIC) it was 5 µg/mL; with Stachybotris chartarum (setting [1]) it was 50 µg/mL.

As to `Cc1cc(C)nc(Nc2ccccc2)n1` [PYM, pyrimethanil], the MIC came to 25 µg/mL in the experiment with Alternaria alternata (nutrient agar, read-out: MIC); 175 µg/mL in the experiment on Aureobasidium pullulans (nutrient agar, read-out: MIC); 250 µg/mL in the experiment with Chaetomium globosum (nutrient agar, read-out: MIC); 90 µg/mL in the experiment on Paecilomyces variotii (nutrient agar, read-out: MIC); 100 µg/mL in the experiment on Stachybotris chartarum (setting [1]).
